“Also recorded” adds a separate entry of the source.
Tests used:
TNBC [1] = test: Pilot biomarker clinical study of S-equol in TNBC (Example 12); format: in vivo, human
Experimental: A pilot biomarker clinical study was performed in 20 subjects with documented TNBC to determine the effect of the ERβ agonist S-equol on Ki67 an indicator of tumor cell proliferation. Tumor cell proliferation was measured by immunohistological staining for Ki-67. See, FIG. 18 for the outline of the protocol. Ki-67 is encoded by the gene MKI67 gene and is required to maintain individual mitotic chromosomes dispersed in the cytoplasm following nuclear envelope disassembly. Measuring the fraction of Ki-67-positive cells in a tumor is known to be a reliable parameter for assessing cancer patient prognosis. Subjects with TNBC are known to have very high levels of Ki67.
Patients enrolled in the study received a history, physical, laboratory assessment, radiological imaging, and diagnostic biopsies. Immunohistochemistry (IHC) of Ki67 (proliferation marker), total ERβ, and pY36-ERβ (phosphorylated ERβ, B7H1 (also known as PDL-1) and BRCA1 (breast cancer 1, early onset) were conducted using core needle biopsy tissue samples prior to treatment. Patients were given oral S-equol 50 mg, twice daily for approximately two weeks (10-21 days) prior to the scheduled oncologic surgeries or start of primary systemic therapy. Tumor samples were obtained from the surgery or the two-week repeat core needle biopsy. Post-treatment IHC evaluation of Ki67, total ERβ, phosphorylated ERβ (pY36) and BRCA1 were obtained. Ki67 reduction is a validated surrogate marker of both short and long term hormonal therapy efficacy in trials of human breast cancer and was compared pre- and post-treatment with S-equol. […] A c-DNA microarray platform was also used to discover downstream transcriptional targets of ERβ resulting from activation by S-equol.
Women eligible for the study had newly diagnosed, previously untreated, triple negative breast cancer, with an intact primary breast tumor of any size. All stages of the disease were eligible. They took S-equol during the time they underwent standard preoperative evaluation or pre-therapeutic work-up for advanced disease, such as staging procedures or central line placement. If primary surgery was performed, tissue leftover after standard diagnostic evaluation was used for the two-week biomarker assessment. […] See, FIG. 10.
A standard procedure for acquiring core biopsy with a Bard 14-gauge needle was utilized for determining TNBC prior to enrollment. Whenever possible, the tumor tissues used for IHC analyses were acquired at the same time as the diagnostic core biopsy. The tissue samples were sent for staining of total and pY36 ERβ and Ki67, and analyzed. Testing for ERα, PR, and HER-2 was performed using validated methods. TNBC tumors were defined as less than 5% nuclear staining of carcinoma cells for ERα and PR and either 0, 1, or 2+ staining for HER-2 by IHC. Whole-Genome DASL HT platform from Illumina, which is designed for gene expression profiling with extremely low input of RNA (50 pg), was used to interrogate paired FFPE tissue obtained before and after exposure to S-equol.
The primary analysis estimated the geometric mean change of the Ki67 expression from baseline to two weeks. This was performed using a one-sample t-test of the pre/post differences in the log-transformed data, and summarized by the 95% confidence interval. […]

TNBC [2] = test: Neoadjuvant window trial of S-equol in TNBC patients (Example 15); format: in vivo, human; design: Cyclin D1 staining, median decrease: unit not given here
Experimental: FIG. 35. Clinical trial with TNBC patients. A neoadjuvant window trial was performed on 39 enrolled patients with TNBC confirmed on diagnostic core needle biopsy. Cohort A (20 patients) received a daily dose of 50 mg BID and Cohort B (19 patients) received a higher dose of 150 mg BID for 10-21 days.
S-equol is a novel oral Estrogen Receptor (ER) Beta agonist with preclinical data showing suppression of TNBC cellular proliferation. A neoadjuvant window trial was performed on 39 enrolled patients with TNBC confirmed on diagnostic core needle biopsy. Cohort A (20 patients) received a daily dose of 50 mg BID and Cohort B (19 patients) received a higher dose of 150 mg BID for 10-21 days. (FIG. 35.) Paired biopsies were evaluable for 36 patients. Primary outcome was a change from pre- to post-treatment Ki-67 and secondary outcomes were included as correlative biomarkers. […] The average decrease in Ki-67 was 8% (P=0.00206, 95% CI−13.46 to −3.26).

rat hippocampal neurons = settings: cited from earlier work
[3] = tested on: MDA-MB-231 cell-derived xenograft tumor; test: MDA-MB-231 xenograft in athymic nude mice; format: in vivo
Experimental: Further work in a preclinical animal model supports the notion of using S-equol to treat TNBC breast cancer. In immunocompromised mouse xenograft experiments, which used MDA-MB-231, a human TNBC breast cancer cell line, growth of tumors was suppressed by 60% with S-equol treatment compared to control. 5×10^6 MDA-MB-231 cells were injected orthotopically into mammary gland fat pads of 6 week-old female athymic nude mice (Harlan). When the tumor masses reached 50 to 80 mm^3 (about one week after the inoculation), the mice were given daily subcutaneous injections of S-equol (20 or 60 mg/kg per day) or PBS as a vehicle control. Tumor development was followed by caliper measurements along two orthogonal axes: length (L) and width (W) and volume (V) was estimated by the formula V=[L×(W^2)]/2. […] Representative tumor sections from vehicle control and S-equol-treated mice were tested for Ki-67 expression to assess cell proliferation, and for ERβ ([…]. Statistical significance in the experiments was assessed by two-tailed Student's t test. In all assays, p<0.05 was considered statistically significant. The results of these experiments are shown in FIGS. 16 and 20. See, Yuan et al. 2016 listed below, which is incorporated by reference herein for all purposes.

[4] = of 17 evaluable patients, S-equol 50 mg twice daily 10-21 days

Oc1ccc([C@H]2COc3cc(O)ccc3C2)cc1 [S-equol]
change in Ki67 pre- vs post-treatment (in words) (TNBC [1]; TNBC patients, oral S-equol 50 mg twice daily for 10-21 days): measurable decrease in Ki67; also recorded: measurable decline in Ki67
patients with 0-20% reduction in Ki-67 (TNBC [1]; [4]): 7 patients
patients with greater than 20% reduction in Ki-67 (TNBC [1]; [4]): one
patients with greater than 30% reduction in Ki-67 (TNBC [1]; [4]): 4 patients
patients with no reduction in Ki-67 (TNBC [1]; [4]): 5 patients
mean posttreatment Ki-67 (TNBC [2]; 36 evaluable patients, S-equol 50 mg BID or 150 mg BID for 10-21 days, mean pre-treatment Ki-67 68%): 59%
tolerability (TNBC [2]; oral, patients with TNBC): well tolerated
proliferation as measured by Ki-67 (in words) (TNBC [2]; patients with TNBC): inhibition of proliferation
change in CD3 or CD8 staining (TNBC [2]; pre- and post-treatment paired tumor samples): no significant change; also recorded: did not significantly change
average decrease in Ki-67 (TNBC [2]; pre- to post-treatment, P=0.00206, 95% CI −13.46 to −3.26): 8%
patients with a Ki-67 decrease of at least 20% from baseline (TNBC [2]; share of the patients): 28%
Cyclin D1 staining, median decrease (TNBC [2]; with S-equol exposure, range −27.5-0.0): 12.5
ER-beta expression by IHC (in words) (TNBC [2]; with exposure to S-equol): decreased
cyclin D1 staining by IHC (in words) (TNBC [2]; with exposure to S-equol): decreased
ER Beta IHC expression, median decrease (TNBC [2]; with exposure to S-equol, range −65.00 to −19.50): 45%
respiratory and maximal glycolysis fluxes (rat hippocampal neurons): increase
xenograft tumor growth ([3]; S-equol vs vehicle (FIG. 16B, FIG. 20)): inhibited; also recorded: reduces the growth of TNBC cells
growth of tumors suppressed compared to control ([3]; daily s.c. S-equol 20 or 60 mg/kg per day vs PBS): 60%
